The values below come from patent US11452731B2, “Method of treating and preventing loss of cognition” (ENDORECHERCHE, INC., priority 2009, dated 2022).

“Also recorded” adds a separate entry of the source. Where two headings read alike, the source gives them in different places. Marks after values point to notes of the source that are not given here.

Assay [1] can be described thus: Clinical trial ERC-213: DHEA vaginal suppositories for 7 days, maturation index and vaginal pH in postmenopausal women (Example 11). It counts as in vivo. Here is the method:
Data are expressed as means±SEM (n=9 or 10). *, p<0.05, **, p<0.01, Data on Day 7 versus Data on Day 1.
The primary objective of that study was measurement of the maturation value of the vaginal epithelial cells following daily intravaginal application of DHEA. Forty postmenopausal women were randomized to receive a daily dose of one ovule of the following DHEA concentrations: 0.0%, 0.5% (6.5 mg of DHEA/ovule), 1.0% (13 mg of DHEA/ovule) or 1.8% (23.4 mg of DHEA/ovule) for 7 days. The systemic bioavailability of DHEA and its metabolites were also measured.

Assay [2] in a line: 9-month treatment with DHEA and/or EM-800 in the rat: urinary and serum markers of bone metabolism. It counts as in vivo. The text has this:
It is particularly important to indicate that the combination of DHEA and EM-800 exerted unexpected beneficial effects on important biochemical parameters of bone metabolism. […] Moreover, no effect of DHEA could be detected on daily urinary calcium or phosphorus excretion (Luo et al., 1997). EM-800 decreased the urinary hydroxyproline/creatinine ratio by 48% while, similarly to DHEA, no effect of EM-800 was seen on urinary calcium or phosphorus excretion. EM-800, moreover, had no effect on serum alkaline phosphatase activity, a marker of bone formation while DHEA increased the value of the parameter by about 75% (Luo et al., 1997).

The conditions of assay [3]: cited from earlier work.
The nature of assay [4]: Endometrial epithelium thickness in OVX nude mice after 161 days of antiestrogen (Example 8). It counts as in vivo. An outline of the steps:
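OVX nude mice received antiestrogen with or without an estrone implant; controls were OVX and OVX+Estrone. Antiestrogens were given as suspensions for 161 days. Uteri were then collected and H&E sections analysed by image analysis for mean endometrial epithelial cell height.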

Assay [5] has as its system MCF-7 human breast cancer cells. The assay is described as follows: Proliferation (DNA content) of human breast cancer MCF-7 cells (Example 7). The format is cell-based. The following applies: for IC50: Homo sapiens, read-out: Inhibition of 1 nM E2 stimulation of DNA by tested compounds IC50. The text has this: MCF-7 human breast cancer cells were obtained from the American Type Culture Collection #HTB 22 at passage 147 and routinely grown in phenol red-free Dulbecco's Modified Eagle's-Ham's F12 medium, the supplements mentioned above and 5% FBS. The MCF-7 human breast adenocarcinoma cell line was derived from the pleural effusion of a patient. MCF-7 cells were used between passages 148 and 165 and subcultured weekly
Thereafter, medium was replaced with fresh medium containing the indicated concentrations of compounds diluted from 1000×stock solutions in 99% redistilled ethanol in the presence or absence of E2. Control cells received only the ethanolic vehicle (0.1% EtOH, v/v). Cells were incubated for the specified time intervals with medium changes at 2- or 3-day intervals. Cell number was determined by measurement of DNA content.
All results are expressed as means±SEM.

The subject of assay [6] is ZR-75-1 human breast cancer xenografts. Description: Growth and response of human ZR-75-1 breast tumors in OVX nude mice, 7 antiestrogens for 161 days with or without estrone (Example 8). The format is in vivo. The method in brief: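 ZR-75-1 xenografts were grown in ovariectomized nude mice, with estrone implants removed in the OVX control and antiestrogen-alone groups. Antiestrogens were given as suspensions for 161 days. Tumor area came from two perpendicular diameters, and response was assessed at study end using mice surviving at least 84 days.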

The mark [7] stands for this setting: DHEA 10 mg, EM-800 75 μg, alone or combined.
Setting [8] is: estrone-supplemented, 50 μg daily, 161 days.

For the compound `C[C@]12CC[C@H](O)CC1=CC[C@@H]1[C@@H]2CC[C@]2(C)C(=O)CC[C@@H]12` [DHEA, dehydroepiandrosterone], the “increase of maturation index, Day 7 versus Day 1” value turned out to be 107% in assay [1] (0.5% DHEA vaginal suppository daily), 75% in assay [1] (1.0% DHEA vaginal suppository daily) and 150% in assay [1] (1.8% DHEA vaginal suppository daily). Besides, the “Vaginal pH” value turned out to be 6.29±0.21 in assay [1] (0.5% DHEA, Day 1 (before)); 5.75±0.27 in assay [1] (0.5% DHEA, Day 7); 6.47±0.23 in assay [1] (1.0% DHEA, Day 1 (before)); 5.76±0.22 in assay [1] (1.0% DHEA, Day 7); 6.53±0.25 in assay [1] (1.8% DHEA, Day 1 (before)); 5.86±0.28 in assay [1] (1.8% DHEA, Day 7). Also, in assay [2], the “decrease of urinary hydroxyproline/creatinine ratio (marker of bone resorption)” value was “did not affect; also recorded: did not show any effect”. Further, the “effect on daily urinary calcium or phosphorus excretion” value in assay [2] is “no effect”. Also, the “increase of serum alkaline phosphatase activity (marker of bone formation)” value in assay [2] is listed as “about 75%”. Also, the “Serum tALP” value in assay [2] (setting [7]) is 198.38 ± 30.76 IU/L. Further, the “Urine HP/Cr” value in assay [2] (setting [7]) was determined as 14.02 ± 1.59 μmol/mmol. In assay [2] (setting [7]), the Urine calcium came out at 25.87 ± 3.54 μmol/24 h/100 g. In assay [2] (setting [7]), the Urine phosphorus is given as 151.41 ± 14.57 μmol/24 h/100 g. In addition, the “decrease of abdominal subcutaneous fat” value in assay [3] (both women and men) is listed as 6%. In addition, in assay [3] (in vivo), the “decrease of responsiveness of serum insulin to the glucose tolerance test” value was 13%. In addition, the “improvement in the insulin sensitivity index” value in assay [3] (in vivo) was 34%. For the same compound, the entries for the “decrease of abdominal visceral fat” value in assay [3] (men) and in assay [3] (women) were 7.4% and 10.2%, respectively.

With `CC1=C(c2ccc(O)cc2)[C@H](c2ccc(OCCN3CCCCC3)cc2)Oc2cc(O)ccc21.Cl` [EM-652.HCl, (S)-(+)-7-hydroxy-3-(4′-hydroxyphenyl)-4-methyl-2-(4″-(2′″-piperidinoethoxy)phenyl)-2H-1-benzopyran hydrochloride], the “inhibition of the stimulatory effect of estrone on epithelial height” value in assay [4] (50 μg daily oral, estrone stimulation) turned out to be 70%. For the same compound, the “height of uterine epithelial cells, % of the OVX control group value” in assay [4] (200 μg daily, absence of estrone) is given as 114%. Also, the “ENDOMETRIAL EPITHELIUM THICKNESS (μm) ± SEM” value in assay [4] (OVX + E1, antiestrogen 50 μg daily) was 25.06^b ± 0.07 μm. Besides, the “ENDOMETRIAL EPITHELIUM THICKNESS (μm) ± SEM” value in assay [4] (OVX without E1, antiestrogen 200 μg daily) turned out to be 20.79 ± 0.10 μm. In assay [5] (MCF7, MCF-7, Experiment 1), the IC50 turned out to be 0.796 nM. For the same compound, the IC50 in assay [5] (MCF7, MCF-7, Experiment 2) worked out at 0.205 nM. The “Maximal stimulation of DNA by tested compounds % of 1 nM E2 stimulation” value in assay [5] (MCF-7, Experiment 1) is given as “N.S”. For the same compound, in assay [5] (MCF-7, Experiment 2), the “Stimulation of DNA by tested compounds % of 1 nM E2 stimulation” value is on record as “N.S”. Moreover, the “increase of average tumor size over baseline (agonistic effect)” value in assay [6] (absence of estrone, 200 μg daily, 161 days) was “did not significantly change”. The “tumor size lower than the initial value at start of treatment” value in assay [6] (estrone-stimulated, 50 μg oral daily, 23 weeks) is recorded as 26%. For the same compound, in assay [6] (setting [8]), the “complete response, % of tumors” value is 17%; the “partial response, % of tumors” value was found to be 17%; the “progressing tumors, % of tumors” value amounted to 7%; the “stable response, % of tumors” value stood at 60%.
